Measurements published in patent US12036234B2, “Heparin conjugated to collagen-binding peptides for targeting to biological and synthetic tissues” (Northwestern University, priority 2017, dated 2024).
Entries after “also recorded” stand apart in the source; their conditions may differ. Ends that are not written are not given here.

Experiments:
[1] = molecular target: collagen IV (Mus musculus, UniProt P02463+P08122); assay: Peptide binding to ECM protein coated plates (streptavidin-594 fluorescence); parameters: purchased Sigma-Aldrich; settings: 1000 μM biotinylated peptide; relative to background fluorescence at 0 μM
Experimental: (§1) Peptide and ECM Binding Specificity. Collagens I, II, III, and IV, fibronectin, laminin, and Matrigel were coated onto 96-well black plates at 10 μg/cm^2. Biotinylated CBP or CBPi were added to coated plates at 0, 1, 10, 100, and 1000 μM overnight at 4° C., after which the plates were washed three times with PBS. Fluorescent streptavidin-594 (4 μg/mL) was added to each well and incubated at room temperature for 2 h, then thoroughly washed with PBS. The plates were read with a fluorescence microplate reader for fluorescence intensity (Ex 591 nm, Em 614 nm). All data were normalized to the background fluorescence intensity of Streptavidin-594 alone directed at each coated protein.

[2] = molecular target: T1, laminin (Mus musculus, UniProt P02468+P02469+P19137); assay: as above; settings: 1000 μM biotinylated peptide
T1 construct: purchased Sigma-Aldrich
Experimental: as §1

[3] = system: Matrigel; assay: as above; settings: 1000 μM biotinylated peptide
Experimental: as §1

[4] = molecular target: T2, collagen III (Homo sapiens, UniProt P02461); assay: as above; settings: biotinylated peptide
T2 construct: purchased Sigma-Aldrich
T2 sequence (P02461 154-1221 limits assumed): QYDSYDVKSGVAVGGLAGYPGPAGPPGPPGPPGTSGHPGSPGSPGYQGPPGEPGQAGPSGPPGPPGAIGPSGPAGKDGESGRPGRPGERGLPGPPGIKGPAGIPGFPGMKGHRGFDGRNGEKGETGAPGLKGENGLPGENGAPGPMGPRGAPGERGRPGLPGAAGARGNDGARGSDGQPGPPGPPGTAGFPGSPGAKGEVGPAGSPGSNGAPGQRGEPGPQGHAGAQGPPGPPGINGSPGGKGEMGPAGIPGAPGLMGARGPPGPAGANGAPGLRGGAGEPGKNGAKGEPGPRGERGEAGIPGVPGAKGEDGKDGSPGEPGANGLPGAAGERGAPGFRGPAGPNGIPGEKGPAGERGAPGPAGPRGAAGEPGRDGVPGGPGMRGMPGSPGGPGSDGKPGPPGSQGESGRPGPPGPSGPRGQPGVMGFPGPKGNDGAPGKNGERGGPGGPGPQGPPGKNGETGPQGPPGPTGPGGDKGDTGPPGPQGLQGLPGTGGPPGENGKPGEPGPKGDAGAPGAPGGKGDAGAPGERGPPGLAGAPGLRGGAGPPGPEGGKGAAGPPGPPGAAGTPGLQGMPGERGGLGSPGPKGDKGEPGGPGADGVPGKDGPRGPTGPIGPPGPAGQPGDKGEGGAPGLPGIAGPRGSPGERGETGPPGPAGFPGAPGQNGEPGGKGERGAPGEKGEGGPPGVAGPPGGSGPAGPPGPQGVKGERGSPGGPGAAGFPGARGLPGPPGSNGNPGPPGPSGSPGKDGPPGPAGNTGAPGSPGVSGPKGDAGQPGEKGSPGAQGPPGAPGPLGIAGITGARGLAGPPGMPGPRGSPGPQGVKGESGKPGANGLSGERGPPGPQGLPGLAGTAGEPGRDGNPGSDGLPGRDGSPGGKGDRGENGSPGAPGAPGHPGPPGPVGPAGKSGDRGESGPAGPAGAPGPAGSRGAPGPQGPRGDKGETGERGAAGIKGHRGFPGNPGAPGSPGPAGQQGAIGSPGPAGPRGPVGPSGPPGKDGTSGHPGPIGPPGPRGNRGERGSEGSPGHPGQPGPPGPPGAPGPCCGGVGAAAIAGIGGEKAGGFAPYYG
Experimental: as §1

[5] = system: fibronectin; assay: as above; parameters: species or system human; settings: biotinylated peptide
Experimental: as §1

[6] = system: Human umbilical vein endothelial cells (HUVECs); assay: Endothelial cell adhesion and retention on modified ECM; assay type: cell-based; settings: 4 weeks (day 28) in culture
Experimental: Addition of Endothelial Cells to Modified ECM. Human umbilical vein endothelial cells (HUVECs, Lonza) at passages 3-8 were cultured in EGM-2 and used for cell seeding. The following groups of ECM vascular grafts (1 cm in length each, n=3 per group) were prepared: (1) ECM control alone without heparin or peptide; (2) ECM incubated with free, unconjugated heparin sodium (1 mg/mL); (3) ECM incubated with CBPi conjugated to heparin (1 mg/mL); and (4) ECM incubated with CBP conjugated to heparin (1 mg/mL). HUVECs were seeded twice onto the lumen of each graft (10000 cells/cm^2 at each inoculation) with a 180° rotation of the graft at 30 min after initial seeding. Recellularized grafts were maintained in culture under static condition with medium changed every 2 days.
Cell Number and Viability Measurement. Resazurin was used to assess cell number and viability of HUVECs on ECM grafts over time. 16 Resazurin sodium (44 μM in EGM-2) was added to cell-laden, ECM-modified grafts and incubated for 2 h and the fluorescence intensity (Ex 560 nm, Em 590 nm) was read. The number of cells was calculated based on the fluorescence reading of serially diluted HUVEC suspensions incubated in resazurin solution to develop a standard curve. Prior to performing each measurement, cell seeded grafts were moved to a new low-attachment, multiwell plate to eliminate off target readings from cells that may have migrated off the graft.
Cell Staining and Fluorescence Microscopy. At 4 weeks after cell seeding, each cell-seeded graft was fixed with paraformaldehyde and stained with Phalloidin-488. Fluorescence microscopy (Nikon TE2000U, Japan) was performed on the flattened luminal surface of the graft.

[7] = system: collagen II; assay: Peptide binding to ECM protein coated plates (streptavidin-594 fluorescence); parameters: species or system chicken; settings: biotinylated peptide
Experimental: as §1

[8] = system: collagen I and collagen IV in decellularized rat aorta ECM and renal ECM; assay: Streptavidin-594 staining of biotinylated CBP on decellularized tissue; assay type: binding; settings: biotinylated CBP at 100 μM
Text: FIG. 7: Immunofluorescence staining of collagen I and collagen IV in decellularized rat aorta ECM (A) and renal ECM (C). Streptavidin-594 staining of biotinylated CBP on decellularized rat aorta ECM (B) and renal ECM (D). Scale bar=100 μm.
The binding between collagens (types I and IV) and CBP, is predicted to be mediated by intermolecular forces between discrete amino acids within collagen and CBP^17 that contribute to the binding specificity observed above. The molecular composition of ECM is largely heterogeneous, including fibrous proteins such as collagens, soluble proteins such as fibronectin and laminin, and proteoglycans such as heparan sulfate, keratin sulfate, and chondroitin sulfate.^18 The detailed composition of ECM proteins also varies from tissue to tissue, however, ECM from most tissue types contains collagen I (interstitial matrix) and collagen IV (basement membrane).^18 Each collagen subtype is retained in decellularized tissues, specifically vascular (FIG. 7A) and renal tissues (FIG. 7C). […] Taken together, this delivery strategy using CBP as a localizing moiety specifically targets collagens (type IV in particular) and may be used to selectively carry bioactive molecules to the vasculature where collagen IV defines the subendothelial basement membrane that forms the vascular network, including the macro- and micro-vasculatures within all tissues and organs.

[9] = molecular target: T3, collagen I (Rattus norvegicus, UniProt P02454+P02466); assay: Peptide binding to ECM protein coated plates (streptavidin-594 fluorescence); settings: biotinylated peptide
T3 construct: purchased Sigma-Aldrich
Experimental: as §1

[10] = system: factor Xa; settings: unconjugated heparin sodium; cited from earlier work
[11] = system: rat aorta ECM; assay: Heparin deposited and retained on aorta ECM (DMMB GAG assay); assay type: binding; settings: immediately after treatment at 1 mg/mL (t=0)
Experimental: Heparin Immobilization onto Rat Aorta ECM. All animal experiments and procedures were approved by the Animal Care and Use Committee of Northwestern University and animal care was performed in accordance with the NIH Guide for Care and Use of Laboratory Animals. Male Sprague-Dawley rats weighing 200-250 g (Charles River Laboratories, Chicago, IL) were used as donors to recover the abdominal segment of the aorta. Rat aorta ECM was isolated via decellularization as described 13 using 1% Triton X for 48 h and 1.5% SDS for 48 h at room temperature, followed by 100 U/mL DNase I solution at 37° C. for 4 h. Aorta ECM was subsequently incubated with heparin sodium, CBP-conjugated heparin or CBPi-conjugated heparin (1 mg/mL) overnight at 4° C., followed by three washes with PBS to remove excessive and unbound heparin (FIG. 1B). ECM without heparin incubation served as negative, untreated controls.
Quantification of Heparin Deposited onto ECM. The amount of heparin immobilized onto aorta ECM was quantified using a GAG assay. […] Retention of heparin on ECM after CBP-heparin treatment was assessed by incubating heparinized ECM in endothelial growth medium (EGM-2, Lonza) at 37° C. and measuring the amount of heparin remaining on ECM weekly using a GAG assay. […]

[12] = molecular target: T4, vascular endothelial growth factor, VEGF (Homo sapiens, UniProt P15692); assay: Growth factor binding to modified ECM (VEGF ELISA); settings: after incubation in EGM-2 for 3 days
T4 construct: purchased Lonza (component of EGM-2 medium)
T4 sequence (P15692 27-191 isoform P15692-4): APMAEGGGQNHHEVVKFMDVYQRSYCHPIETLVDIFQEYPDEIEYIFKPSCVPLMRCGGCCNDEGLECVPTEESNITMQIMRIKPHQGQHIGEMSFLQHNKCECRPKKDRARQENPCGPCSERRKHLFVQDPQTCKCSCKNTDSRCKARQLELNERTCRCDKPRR
Experimental: Growth Factor Binding to Modified ECM. ECM samples treated with PBS alone, heparin alone, CBPi-heparin, or CBP-heparin were incubated in EGM-2 (containing 2 ng/mL recombinant human vascular endothelial growth factor, VEGF) for 3 days and washed with PBS to measure the degree of VEGF recruited to heparin modified ECM. ECM grafts before and after EGM-2 incubation were weighed and proteins were extracted as previously described using a urea buffer. 13 The amount of VEGF was measured using an ELISA for human and rat VEGF (Thermo Fisher, Waltham, MA).

[13] = system: recalcified porcine blood; assay: Clot formation of recalcified whole blood on ECM grafts
Experimental: Clot Formation of Recalcified Whole Blood. A recalcified whole blood clotting assay was performed to assess hemocompatibility of ECM grafts treated with or without the addition of heparin, alone or conjugated to CBP/CBPi.^15 Briefly, […] Each sample was weighed before and after incubation with recalcified blood, and the mass of the blood clotted on each sample was calculated and normalized to the weight of the ECM. Each sample containing clotted blood was subsequently embedded in paraffin, sectioned and stained with H&E for microscopic analysis.

[14] = system: rat platelet rich plasma; assay: Platelet adhesion to modified ECM (LDH assay); assay type: cell-based; settings: ECM treated at 1 mg/mL
Experimental: Platelet Adhesion. The thrombogenic properties of modified ECM were evaluated by a platelet adhesion assay described previously.^13 ECM grafts were incubated in diluted rat platelet rich plasma ([…] platelet/mL) at 37° C. for 1 h, rinsed with warm PBS, and lysed with 2% Triton-X. Lactate dehydrogenase (LDH) released into the medium was measured by an LDH assay following the manufacturer's protocol (Roche Molecular Diagnostics, Pleasanton, CA). LDH measured from lysates of serially diluted platelets standardized the assay to quantify the concentration of deposited platelet on ECM.

T3 sequence (P02454 152-1207 limits assumed): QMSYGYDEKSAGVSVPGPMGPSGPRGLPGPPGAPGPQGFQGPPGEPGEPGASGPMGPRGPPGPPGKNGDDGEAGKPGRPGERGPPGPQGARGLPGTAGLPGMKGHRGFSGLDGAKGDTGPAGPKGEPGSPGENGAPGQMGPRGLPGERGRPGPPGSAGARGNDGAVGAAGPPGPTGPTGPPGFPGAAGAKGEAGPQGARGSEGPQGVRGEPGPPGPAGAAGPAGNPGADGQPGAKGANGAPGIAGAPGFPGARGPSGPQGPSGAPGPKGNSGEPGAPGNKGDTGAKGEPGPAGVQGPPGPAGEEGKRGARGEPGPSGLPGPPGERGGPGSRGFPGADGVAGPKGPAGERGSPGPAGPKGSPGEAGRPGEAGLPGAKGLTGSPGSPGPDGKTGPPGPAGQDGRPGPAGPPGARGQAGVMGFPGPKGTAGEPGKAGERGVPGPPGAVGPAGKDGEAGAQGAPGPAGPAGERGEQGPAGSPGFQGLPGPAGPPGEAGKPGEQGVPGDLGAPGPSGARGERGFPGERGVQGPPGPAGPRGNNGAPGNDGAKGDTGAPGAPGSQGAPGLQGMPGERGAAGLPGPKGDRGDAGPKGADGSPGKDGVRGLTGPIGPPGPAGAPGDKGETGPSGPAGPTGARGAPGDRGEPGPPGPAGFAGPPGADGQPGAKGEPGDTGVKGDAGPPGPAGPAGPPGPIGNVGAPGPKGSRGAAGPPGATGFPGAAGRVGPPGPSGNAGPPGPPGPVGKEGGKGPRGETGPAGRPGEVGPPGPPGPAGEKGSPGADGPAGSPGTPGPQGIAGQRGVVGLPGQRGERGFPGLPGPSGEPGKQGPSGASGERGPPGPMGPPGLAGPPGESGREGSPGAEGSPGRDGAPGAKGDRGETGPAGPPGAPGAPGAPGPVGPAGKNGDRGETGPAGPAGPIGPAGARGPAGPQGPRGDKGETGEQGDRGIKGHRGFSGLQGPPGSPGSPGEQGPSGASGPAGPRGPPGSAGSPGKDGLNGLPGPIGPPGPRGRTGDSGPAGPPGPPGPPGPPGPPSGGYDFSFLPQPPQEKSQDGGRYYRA
T3 sequence (P02466 86-1125 limits assumed): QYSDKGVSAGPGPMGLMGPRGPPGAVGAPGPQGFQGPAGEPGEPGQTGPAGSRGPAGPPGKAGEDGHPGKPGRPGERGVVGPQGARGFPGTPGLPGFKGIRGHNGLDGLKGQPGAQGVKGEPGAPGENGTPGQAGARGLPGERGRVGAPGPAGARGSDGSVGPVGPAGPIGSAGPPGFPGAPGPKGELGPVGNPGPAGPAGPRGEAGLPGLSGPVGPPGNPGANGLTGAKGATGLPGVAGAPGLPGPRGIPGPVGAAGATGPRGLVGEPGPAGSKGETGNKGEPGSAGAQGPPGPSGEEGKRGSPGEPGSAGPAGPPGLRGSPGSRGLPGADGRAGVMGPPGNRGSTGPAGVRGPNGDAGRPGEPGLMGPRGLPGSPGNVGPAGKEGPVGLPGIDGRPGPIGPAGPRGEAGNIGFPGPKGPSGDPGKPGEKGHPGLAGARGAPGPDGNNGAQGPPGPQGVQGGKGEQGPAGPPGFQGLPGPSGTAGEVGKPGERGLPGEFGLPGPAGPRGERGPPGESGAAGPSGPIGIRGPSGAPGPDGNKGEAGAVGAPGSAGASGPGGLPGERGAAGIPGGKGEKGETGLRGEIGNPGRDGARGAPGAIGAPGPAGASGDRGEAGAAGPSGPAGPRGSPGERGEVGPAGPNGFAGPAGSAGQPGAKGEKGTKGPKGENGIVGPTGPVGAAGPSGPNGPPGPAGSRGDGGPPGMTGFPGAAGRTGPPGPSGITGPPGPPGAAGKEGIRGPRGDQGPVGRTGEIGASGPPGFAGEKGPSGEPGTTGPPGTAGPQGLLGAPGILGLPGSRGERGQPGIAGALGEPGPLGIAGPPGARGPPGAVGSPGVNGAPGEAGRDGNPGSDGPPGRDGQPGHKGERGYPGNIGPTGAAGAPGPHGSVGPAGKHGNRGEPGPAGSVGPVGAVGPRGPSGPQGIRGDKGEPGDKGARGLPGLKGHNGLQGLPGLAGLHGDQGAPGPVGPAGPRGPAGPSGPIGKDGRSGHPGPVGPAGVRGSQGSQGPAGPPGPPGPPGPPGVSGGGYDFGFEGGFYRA
collagen IV, sequence (P02463 173-1669): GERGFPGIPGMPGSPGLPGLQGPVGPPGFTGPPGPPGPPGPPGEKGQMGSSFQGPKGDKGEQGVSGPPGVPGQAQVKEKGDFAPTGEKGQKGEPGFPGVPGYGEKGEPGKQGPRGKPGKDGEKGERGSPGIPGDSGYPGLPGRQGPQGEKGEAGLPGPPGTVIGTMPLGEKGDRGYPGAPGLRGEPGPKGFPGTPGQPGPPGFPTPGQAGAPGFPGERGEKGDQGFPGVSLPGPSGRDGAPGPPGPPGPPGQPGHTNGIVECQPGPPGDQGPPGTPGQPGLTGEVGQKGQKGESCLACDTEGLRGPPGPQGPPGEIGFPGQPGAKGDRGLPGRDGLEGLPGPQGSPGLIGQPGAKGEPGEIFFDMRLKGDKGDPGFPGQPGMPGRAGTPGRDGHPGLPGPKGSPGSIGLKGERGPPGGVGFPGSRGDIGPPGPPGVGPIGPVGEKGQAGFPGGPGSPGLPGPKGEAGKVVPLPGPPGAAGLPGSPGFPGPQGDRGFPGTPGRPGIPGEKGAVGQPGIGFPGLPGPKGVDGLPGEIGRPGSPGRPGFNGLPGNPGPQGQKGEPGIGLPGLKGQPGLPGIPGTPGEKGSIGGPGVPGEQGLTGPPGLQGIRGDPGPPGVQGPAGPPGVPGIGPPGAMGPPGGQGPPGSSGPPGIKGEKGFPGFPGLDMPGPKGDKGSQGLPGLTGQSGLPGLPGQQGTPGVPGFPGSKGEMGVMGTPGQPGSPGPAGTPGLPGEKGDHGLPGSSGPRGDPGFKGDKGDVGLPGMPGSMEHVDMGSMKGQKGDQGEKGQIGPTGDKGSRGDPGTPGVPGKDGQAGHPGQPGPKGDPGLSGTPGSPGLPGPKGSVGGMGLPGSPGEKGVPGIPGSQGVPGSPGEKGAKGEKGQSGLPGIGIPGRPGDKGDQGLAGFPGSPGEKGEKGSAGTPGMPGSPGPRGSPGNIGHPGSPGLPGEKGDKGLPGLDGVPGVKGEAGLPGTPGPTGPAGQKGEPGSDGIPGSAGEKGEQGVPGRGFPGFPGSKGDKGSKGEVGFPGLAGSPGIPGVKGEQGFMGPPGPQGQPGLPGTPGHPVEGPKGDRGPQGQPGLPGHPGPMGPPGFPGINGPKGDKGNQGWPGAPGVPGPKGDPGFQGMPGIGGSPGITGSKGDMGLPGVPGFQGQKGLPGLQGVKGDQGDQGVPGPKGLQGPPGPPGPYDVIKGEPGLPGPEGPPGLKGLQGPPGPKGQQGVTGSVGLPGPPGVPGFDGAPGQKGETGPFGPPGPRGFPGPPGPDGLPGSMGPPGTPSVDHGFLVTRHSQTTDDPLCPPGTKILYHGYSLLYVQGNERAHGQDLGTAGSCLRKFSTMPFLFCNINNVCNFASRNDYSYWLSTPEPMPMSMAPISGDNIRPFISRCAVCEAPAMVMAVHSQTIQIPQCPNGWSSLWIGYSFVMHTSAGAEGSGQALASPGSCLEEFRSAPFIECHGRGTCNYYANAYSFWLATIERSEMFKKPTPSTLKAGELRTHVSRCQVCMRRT
collagen IV, sequence (P08122 184-1707): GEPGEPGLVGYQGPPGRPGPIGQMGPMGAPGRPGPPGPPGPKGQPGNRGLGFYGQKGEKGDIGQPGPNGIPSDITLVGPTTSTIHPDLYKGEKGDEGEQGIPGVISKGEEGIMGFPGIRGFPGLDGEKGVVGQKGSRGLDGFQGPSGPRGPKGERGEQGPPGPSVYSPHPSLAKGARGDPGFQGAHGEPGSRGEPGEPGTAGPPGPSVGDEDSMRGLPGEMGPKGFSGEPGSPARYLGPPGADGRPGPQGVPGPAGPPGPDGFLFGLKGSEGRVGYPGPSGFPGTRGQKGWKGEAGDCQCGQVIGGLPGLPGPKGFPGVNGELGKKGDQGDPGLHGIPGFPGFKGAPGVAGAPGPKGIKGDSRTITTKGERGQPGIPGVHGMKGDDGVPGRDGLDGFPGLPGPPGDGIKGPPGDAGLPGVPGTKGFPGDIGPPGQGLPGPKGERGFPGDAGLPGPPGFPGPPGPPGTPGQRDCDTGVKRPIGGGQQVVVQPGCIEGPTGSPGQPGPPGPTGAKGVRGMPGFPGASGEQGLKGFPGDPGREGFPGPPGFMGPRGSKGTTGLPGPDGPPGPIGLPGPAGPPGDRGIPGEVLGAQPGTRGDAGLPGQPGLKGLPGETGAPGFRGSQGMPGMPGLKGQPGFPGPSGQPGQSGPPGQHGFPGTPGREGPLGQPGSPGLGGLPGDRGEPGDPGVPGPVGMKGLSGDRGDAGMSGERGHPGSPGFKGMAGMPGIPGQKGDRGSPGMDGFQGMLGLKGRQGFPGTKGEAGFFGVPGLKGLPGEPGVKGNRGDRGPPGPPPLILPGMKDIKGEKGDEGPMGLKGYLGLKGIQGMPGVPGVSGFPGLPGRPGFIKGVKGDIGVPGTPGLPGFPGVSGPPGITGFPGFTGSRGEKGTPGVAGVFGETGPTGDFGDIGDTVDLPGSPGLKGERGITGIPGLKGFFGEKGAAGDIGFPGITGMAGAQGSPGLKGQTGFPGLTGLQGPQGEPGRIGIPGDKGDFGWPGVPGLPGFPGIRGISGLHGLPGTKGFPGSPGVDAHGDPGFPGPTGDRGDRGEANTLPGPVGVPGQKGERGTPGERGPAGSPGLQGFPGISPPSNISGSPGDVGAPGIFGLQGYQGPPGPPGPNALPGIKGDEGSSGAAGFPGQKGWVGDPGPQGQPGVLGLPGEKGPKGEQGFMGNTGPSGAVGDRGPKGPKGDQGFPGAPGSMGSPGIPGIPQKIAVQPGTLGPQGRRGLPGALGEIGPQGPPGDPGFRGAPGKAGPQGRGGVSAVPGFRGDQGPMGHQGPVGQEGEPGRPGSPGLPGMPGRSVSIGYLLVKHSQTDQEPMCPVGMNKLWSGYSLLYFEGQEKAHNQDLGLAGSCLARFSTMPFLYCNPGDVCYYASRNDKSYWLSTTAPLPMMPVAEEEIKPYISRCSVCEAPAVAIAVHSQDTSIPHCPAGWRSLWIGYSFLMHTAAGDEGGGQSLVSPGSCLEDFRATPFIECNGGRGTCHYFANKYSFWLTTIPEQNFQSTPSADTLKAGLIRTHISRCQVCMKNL

CDEFQRSTTY [CBPi]
increase in surface fluorescence intensity on collagen IV coated surface [1]: did not result in any increase | binding to laminin [2]: minimal, through significant, levels of binding | binding to Matrigel [3]: minimal, through significant, levels of binding | binding to collagen III [4]: Neither CBP nor CBPi binds | binding to fibronectin [5]: Neither CBP nor CBPi binds | adherent endothelial cells on ECM grafts [6]: did not preserve endothelial cell adhesion | adherent endothelial cells on ECM grafts ([6]; listed as BCPi): Minimal to no cells remain | binding to collagen II [7]: Neither CBP nor CBPi binds

CQDSETRTFY (not fully specified; also: biotin, place not given here; listed as Homo sapiens) [CBP]
colocalization with collagens in decellularized vascular and renal tissue [8]: colocalized with each subtype but was more prominent around collagen IV | binding to collagen I coated surfaces [9]: to a much lesser extent | binding to laminin [2]: minimal, through significant, levels of binding | binding to Matrigel [3]: minimal, through significant, levels of binding | binding to collagen III [4]: Neither CBP nor CBPi binds | binding to fibronectin [5]: Neither CBP nor CBPi binds | adherent endothelial cells on ECM grafts [6]: did not preserve endothelial cell adhesion; also recorded: Minimal to no cells remain | binding to collagen II [7]: Neither CBP nor CBPi binds

Heparin sodium
anti-Factor Xa activity of reference standard [10]: 200 U/mg | glycosaminoglycan (heparin) content of ECM [11]: 2.81±0.19 μg GAG/mg ECM | VEGF concentration within ECM grafts [12]: 46.5±12.1 pg/mg ECM | blood clots observed on ECM grafts (H&E) ([13]; decellularized vascular ECM grafts): Thick blood clots | mass of clot/mass of ECM×100% ([13]; treated ECM with recalcified blood, 30 min point): 612.1±126.0% | adherent endothelial cells on ECM grafts [6]: decreased significantly | reduction in the number of adherent platelets compared to PBS-treated ECM [14]: 5.7±6.2%
